Experimental data from paper PMC11096368, “Transcriptomic signature, bioactivity and safety of a non-hepatotoxic analgesic generating AM404 in the midbrain PAG region” (Scientific Reports, 2024).
Like-named read-outs stand apart in the source and are kept apart here.

Assays:
Type in all cases: in vivo
CD-1 male mice = test: LPS fever induction antipyresis assay; details: 75 mg/kg PO, LPS 100 μg/kg ip, n = 20
Procedure: Antipyresis experiments were carried out with n = 60 CD-1 male mice weighing between 45 and 50 g. All mice were kept in a 12-h day/12-h night cycle with free access to food and water ad libitum. After habituating and acclimating the mice for a week, each mouse was briefly anesthetized for 1 min with 1% isoflurane and implanted subcutaneously a transmitter probe that records core body temperature – Implantable Programmable Temperature Transponder (IPTT-300) by Bio Medic Data Systems (BMDS), DE, USA. The mice were allowed to recover for at least one week from the surgery before any recordings were made and observed in their home cages prior to pyrogen challenge for inducing fever. Temperatures were recorded using the BMDS DAS-8027-IUS data reading system.
All mice were fasted overnight (15 h) with free access to water ad libitum prior to the pyrogen challenge. For the induction of fever, LPS from E. coli (100 μg/kg, 0111:B4) (MilliporeSigma, Billerica, MA, USA) was used. Mice received either LPS in 0.9% saline (sterile) (vehicle) or just 0.9% saline as an intraperitoneal (ip) injection.
All drugs and vehicle (10% DMSO: 10% labrasol :80% PEG400) were administered by oral gavage, PO dosing. Each dosing volume was ~ 0.3–0.4 mL per mouse. […] We chose this dose to record antipyretic effect in a low dose that doesn’t cause hypothermia in mice.

Sprague–Dawley rats = test: CFA-induced inflammatory pain / Hargreaves thermal sensitivity assay; details: high dose (100 mg/kg)
Excerpt: In these same cohorts of animals, we simultaneously measured their thermal nociception to hyperalgesia with the Hargreaves test using the plantar test apparatus (Ugo Basile 37,570). In this experimental setup, the rodents are placed in plastic cages on top of a glass surface, and their hind paws are subjected to an infrared heat stimulus. One hind paw at a time is stimulated with the light source (noxious stimuli) until the animal retracts the paw from the glass surface because of the stimulus. Baseline withdrawal thresholds (latency) of both the right and left paws were recorded, and animals were assigned to different treatment groups so that each group had approximately equal withdrawal threshold averages in both paws. After baseline testing, treated animals received subcutaneous plantar injection (150 μl) of 50% CFA into the left hind paw, while control animals received a plantar injection (150 µl) of 0.9% NaCl into their left hind paw. CFA induces inflammation, resulting in a left hind paw that is hypersensitive to the thermal stimulus, while the right hind paw serves as a within-subject baseline for each animal. To obtain Hargreaves withdrawal latency recordings, each animal was placed in an individual plastic observation compartment on a glass platform, which provided access to the plantar surface of the hind paws from underneath. After acclimation to the environment for 30 min, thermal hypersensitivity was assessed by stimulating the mid-plantar area of each hind paw with a bright light source attached to the meter (Ugo Basile 37,570) until animals withdrew the paw from the surface. The withdrawal threshold was defined as the average time (s) required for the rat to withdraw the stimulated paw. A brisk withdrawal of the paw (often followed by a sustained retraction and/or licking) was considered a positive response, but paw withdrawals due to locomotion or weight shifting were not counted. The Hargreaves studies were conducted with the plantar stimulation device that automatically registers the time (s) necessary to elicit paw withdrawal in order to eliminate bias in determining paw withdrawal thresholds. A cutoff of 20 s is pre-programmed so that the light source shuts off at that maximal period so as to not induce any burns on the plantar surface of the rodents. The Hargreaves test permits measurement of ipsilateral and contralateral heat thresholds, allowing each animal to serve as its own internal control in unilateral pain models. In addition, the Hargreaves test enables quantification of heat thresholds in unrestrained animals, reducing the likelihood of stress-induced responses.

CD1 or C57BL/6 mice = test: Acetic acid-induced abdominal writhing assay (visceral pain); details: for ED50: Mus musculus, equimolar dosing; for Analgesia in acetic acid-induced writhing assay: high dose (100 mg/kg), all experimental cohorts
Excerpt: The investigators were blinded till the completion of all the experiments. To ensure objectivity, investigators were blinded for the acetic acid and tail flick experiments. In the CFA/von Frey and Hargreaves assays, one investigator did the drug pre-treatments, and another investigator at another location who was not aware of the treatments conducted the behavioral testing. Moreover, these studies used the eVF device that electronically registers the grams of force necessary to elicit paw withdrawal, eliminating bias that confounded older versions of this test in which an investigator used a series of individual von Frey microfilaments to determine paw withdrawal thresholds. Six separate experimenters were involved in the data acquisition for behavioral testing, and another separate investigator performed all the statistical analyses using GraphPad Prism Version 9.1.2. Statistical significance was determined by p < 0.05; one-way ANOVA followed by Sidak’s multiple comparisons post hoc test. Mixed-gender experiments were powered to test for gender effects, and different ages of rodents were also included for the experiments – young (2 months) and aged (20 months) to tease out whether there are any effects of age-related changes in nociceptive sensitivity under naïve, and inflammatory pre-clinical rodent pain models. For the aged rats and mice, we could only obtain male Sprague–Dawley rats and male C57BL/6 mice of 20 months old from all commercial animal vendors and from the National Institute of Aging (NIA). So, only these rodents were used for the older animal experimental cohort. Old female rats and mice were not available at the time when these experiments were conducted. For ED50 calculation, dose–response curves were calculated with regression analysis and log transformation using GraphPad Prism 9.1.2.
In this model of visceral pain, abdominal contraction (writhing), in which contraction of the abdominal muscles and stretching of the hind limbs is induced in mice in response to an ip injection of 0.4% acetic acid at a dose of 10 mL/kg 25 min after drug administration, is assessed. Specifically, the number of writhes is counted for 10 min, beginning 5 min after acetic acid injection. […] CD1 (young male and female) or C57BL/6 (aged male) mice were used. For the abdominal writhing assays, we used n = 35 aged male mice, n = 70 young male mice, and n = 70 young female mice.

[1] = young male and young female rats
[2] = read-out: ED50 Acetic acid writhing Assay (Mice), Aged (Male)
[3] = read-out: ED50 Acetic acid writhing Assay (Mice), Young (Female)
[4] = read-out: ED50 Acetic acid writhing Assay (Mice), Young (Male)

SMILES | Antipyresis, LPS fever (CD-1 male mice) | Analgesia in Hargreaves assay (paw withdrawal latencies) (Sprague–Dawley rats; aged male rats) | Analgesia in Hargreaves assay (paw withdrawal latencies) (Sprague–Dawley rats; [1]) | ED50 (CD1 or C57BL/6 mice; [2]) | ED50 (CD1 or C57BL/6 mice; [3]) | ED50 (CD1 or C57BL/6 mice; [4]) | Analgesia in acetic acid-induced writhing assay (CD1 or C57BL/6 mice)
CC(=O)Nc1ccc(O)cc1 [ApAP, acetaminophen, reference compound] | comparable antipyresis | significant analgesia | significant analgesia | 71.6 µmol/kg | 661 µmol/kg | 75.8 µmol/kg | significant analgesia
CCN(CC)C(=O)c1ccccc1S(=O)(=O)NCC(=O)Nc1ccc(O)cc1 [SRP-001, N,N-diethyl-2-[[2-(4-hydroxyanilino)-2-oxo-ethyl]sulfamoyl]benzamide] | comparable antipyresis | significant analgesia | significant analgesia | 22.1 µmol/kg | 237 µmol/kg | 31.1 µmol/kg | significant analgesia
